The target of data set [1] is Cytochrome P450 2D6 (Homo sapiens, UniProt P10635). Briefly: Inhibition of CYP2D6 (unknown origin). The format is ADME.
The target in data set [2] is Cytochrome P450 2C9 (Homo sapiens, UniProt P11712). Briefly: Inhibition of CYP2C9 (unknown origin). In kind it is ADME.
Data set [3] is described as follows: Tmax in Sprague-Dawley rat at 2.5 mg/kg, po. In kind it is ADME, organism-based. Particulars: in vivo.
The nature of data set [4]: AUC (0 to infinity) in Sprague-Dawley rat at 0.5 mg/kg, iv. More on the design: dose 0.5 mg/kg, route intravenous, time infinity. Particulars: Sprague-Dawley, in vivo. The format is ADME, organism-based.
The target in data set [5] is Cytochrome P450 3A4 (Homo sapiens, UniProt P08684). Briefly: Inhibition of CYP3A4 (unknown origin). In kind it is ADME.
Data set [6] can be described thus: Thermodynamic solubility of the compound in fasted state simulated intestinal […] after 2 to 5 days by UV-HPLC analysis. The format is physicochemical. Particulars: read-out: Therm_solubility.
The nature of data set [7]: Oral bioavailability in Sprague-Dawley rat at 2.5 mg/kg. The format is ADME, organism-based. Particulars: in vivo.
The target in data set [8] is Cytochrome P450 2C19 (Homo sapiens, UniProt P33261). Briefly: Inhibition of CYP2C19 (unknown origin). In kind it is ADME.
A short description of data set [9]: Clearance in Sprague-Dawley rat at 0.5 mg/kg, iv. In kind it is ADME, organism-based. Particulars: in vivo.
The target of data set [10] is T1, PXR (NR1I2) (Homo sapiens, UniProt O75469).
T1 sequence (O75469 whole entry): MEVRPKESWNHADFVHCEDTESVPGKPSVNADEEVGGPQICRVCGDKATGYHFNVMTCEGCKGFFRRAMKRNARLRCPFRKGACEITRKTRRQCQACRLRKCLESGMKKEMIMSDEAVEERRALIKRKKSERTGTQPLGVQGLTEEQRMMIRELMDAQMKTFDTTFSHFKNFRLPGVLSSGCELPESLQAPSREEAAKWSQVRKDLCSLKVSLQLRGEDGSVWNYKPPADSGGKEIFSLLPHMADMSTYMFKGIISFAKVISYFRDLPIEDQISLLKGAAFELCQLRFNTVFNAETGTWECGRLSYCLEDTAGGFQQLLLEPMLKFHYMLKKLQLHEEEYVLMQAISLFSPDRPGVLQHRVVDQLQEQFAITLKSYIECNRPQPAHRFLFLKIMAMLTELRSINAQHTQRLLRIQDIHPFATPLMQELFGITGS
Briefly: […] at PXR LBD (unknown origin) expressed in HEK293 cells […] at 10 uM after 16 hrs by luciferase reporter gene assay relative to rifampicin. The format is ADME, cell-based. Particulars: HEK293 cells expressing PXR LBD, read-out: Efficacy. On the technique in general: A reporter such as luciferase makes a cellular process visible.

The target of data set [11] is T1, PXR (NR1I2). Nature of the data set: […] at PXR LBD (unknown origin) expressed in HEK293 cells […] at 1 uM after 16 hrs by luciferase reporter gene assay relative to rifampicin. The format is ADME, cell-based. Particulars: HEK293 cells expressing PXR LBD, read-out: Efficacy.
Data set [12] can be described thus: Half life in rat microsomes. In kind it is ADME, Microsome.
Data set [13] deals with T2, Cytochrome P450 1A2 (Homo sapiens, UniProt P05177).
T2 sequence (P05177 whole entry): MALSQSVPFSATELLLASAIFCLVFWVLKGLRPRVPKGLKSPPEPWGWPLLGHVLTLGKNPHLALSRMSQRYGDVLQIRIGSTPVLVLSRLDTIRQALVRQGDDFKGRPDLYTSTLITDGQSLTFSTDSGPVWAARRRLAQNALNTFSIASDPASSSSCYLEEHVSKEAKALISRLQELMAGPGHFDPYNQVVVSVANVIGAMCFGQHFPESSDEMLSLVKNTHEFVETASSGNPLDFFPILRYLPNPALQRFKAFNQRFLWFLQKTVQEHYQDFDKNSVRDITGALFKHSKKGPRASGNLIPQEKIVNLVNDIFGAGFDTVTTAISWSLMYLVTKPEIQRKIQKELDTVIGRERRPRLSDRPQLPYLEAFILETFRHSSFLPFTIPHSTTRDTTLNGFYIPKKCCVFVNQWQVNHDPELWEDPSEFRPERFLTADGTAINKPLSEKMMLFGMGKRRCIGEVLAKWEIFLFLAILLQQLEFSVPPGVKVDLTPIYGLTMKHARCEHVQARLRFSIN
Nature of the data set: Inhibition of CYP1A2 (unknown origin). In kind it is ADME.

A short description of data set [14]: Half life in human microsomes. The format is ADME, Microsome.
Data set [15] is described as follows: AUC (0 to infinity) in Sprague-Dawley rat at 2.5 mg/kg, po. The arrangement: dose 2.5 mg/kg, time infinity, route oral. Particulars: in vivo. The format is ADME, organism-based.
Data set [16] can be described thus: Thermodynamic solubility of the compound in 30 mM phosphate buffer at 10 mM at pH 7 after 2 to 5 days by UV-HPLC analysis. In kind it is physicochemical. Particulars: read-out: Therm_solubility.
Data set [17] in a line: Half life in Sprague-Dawley rat at 0.5 mg/kg, iv. The format is ADME, organism-based. Particulars: in vivo.
A short description of data set [18]: Cmax in Sprague-Dawley rat at 2.5 mg/kg, po. The format is ADME, organism-based. The arrangement: dose 2.5 mg/kg, route oral. Particulars: in vivo.
Data set [19] can be described thus: Initial plasma concentration in Sprague-Dawley rat at 0.5 mg/kg, iv. In kind it is ADME, organism-based.
The nature of data set [20]: Terminal half life in Sprague-Dawley rat at 2.5 mg/kg, po. The format is ADME, organism-based. Particulars: in vivo, read-out: beta t1/2 (converted).
Data set [21] concerns the target T3, Cytochrome P450 2C8 (Homo sapiens, UniProt P10632).
T3 sequence (P10632 whole entry): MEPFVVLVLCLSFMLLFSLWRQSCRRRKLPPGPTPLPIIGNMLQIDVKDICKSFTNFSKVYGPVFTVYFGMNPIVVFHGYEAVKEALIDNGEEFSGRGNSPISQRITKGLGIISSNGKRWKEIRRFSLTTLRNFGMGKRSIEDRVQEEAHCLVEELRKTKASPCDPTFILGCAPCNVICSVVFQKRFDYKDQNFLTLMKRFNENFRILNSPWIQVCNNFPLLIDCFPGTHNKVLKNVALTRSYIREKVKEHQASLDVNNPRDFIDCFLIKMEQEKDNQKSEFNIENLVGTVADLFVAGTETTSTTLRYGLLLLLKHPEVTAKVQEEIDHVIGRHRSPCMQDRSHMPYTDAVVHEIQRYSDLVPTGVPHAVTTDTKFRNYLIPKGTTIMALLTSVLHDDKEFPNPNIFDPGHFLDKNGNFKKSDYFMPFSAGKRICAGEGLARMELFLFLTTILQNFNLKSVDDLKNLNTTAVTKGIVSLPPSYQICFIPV
Briefly: Inhibition of CYP2C8 (unknown origin). In kind it is ADME.

Data set [22] is described as follows: Volume of distribution at steady state in Sprague-Dawley rat at 0.5 mg/kg, iv. The format is ADME, organism-based. Particulars: in vivo, read-out: Vdss.
Data set [23] in a line: Clearance in Sprague-Dawley rat at 1 mg/kg, iv. In kind it is ADME, organism-based. Particulars: in vivo.
The nature of data set [24]: AUC (0 to infinity) in Sprague-Dawley rat at 1 mg/kg, iv. The format is ADME, organism-based. The arrangement: dose 1 mg/kg, time infinity, route intravenous. Particulars: in vivo.
Data set [25] in a line: AUC (0 to infinity) in Sprague-Dawley rat at 5 mg/kg, po. The format is ADME, organism-based. More on the design: dose 5 mg/kg, route oral, time infinity. Particulars: in vivo.
The target of data set [26] is T4, Nuclear receptor ROR-beta (Homo sapiens, UniProt Q92753).
T4 sequence (Q92753 whole entry): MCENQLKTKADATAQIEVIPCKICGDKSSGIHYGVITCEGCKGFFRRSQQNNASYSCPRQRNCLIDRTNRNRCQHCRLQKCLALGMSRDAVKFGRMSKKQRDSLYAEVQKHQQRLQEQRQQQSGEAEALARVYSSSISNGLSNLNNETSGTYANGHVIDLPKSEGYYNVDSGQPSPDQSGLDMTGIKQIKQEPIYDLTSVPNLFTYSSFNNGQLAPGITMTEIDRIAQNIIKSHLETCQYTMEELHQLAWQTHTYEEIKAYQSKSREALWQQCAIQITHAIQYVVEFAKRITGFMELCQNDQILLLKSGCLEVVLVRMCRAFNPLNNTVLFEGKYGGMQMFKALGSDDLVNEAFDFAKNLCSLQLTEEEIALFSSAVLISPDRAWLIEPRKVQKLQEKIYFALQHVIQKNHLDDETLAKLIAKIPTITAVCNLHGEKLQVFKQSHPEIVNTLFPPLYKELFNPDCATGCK
Briefly: Binding affinity to recombinant human RORbeta LBD (201 to 452 residues) expressed in Escherichia coli BL21 (DE3) GOLD by 1,8-ANS dye-based thermofluor assay. On the technique in general: In DSF a fluorescence change marks the thermal transition of the protein.

The nature of data set [27]: Tmax in Sprague-Dawley rat at 5 mg/kg, po. The format is ADME, organism-based. Particulars: in vivo.
A short description of data set [28]: Initial plasma concentration in Sprague-Dawley rat at 1 mg/kg, iv. In kind it is ADME, organism-based.
Data set [29] in a line: Oral bioavailability in Sprague-Dawley rat at 5 mg/kg. The format is ADME, organism-based. Particulars: in vivo.
Data set [30] is described as follows: Cmax in Sprague-Dawley rat at 5 mg/kg, po. The format is ADME, organism-based. The arrangement: dose 5 mg/kg, route oral. Particulars: in vivo.
Data set [31] deals with T1, PXR (NR1I2). Nature of the data set: […] at PXR LBD (unknown origin) expressed in HEK293 cells […] at 5 uM after 16 hrs by luciferase reporter gene assay relative to rifampicin. The format is ADME, cell-based. Particulars: HEK293 cells expressing PXR LBD, read-out: Efficacy.
Data set [32] in a line: Half life in Sprague-Dawley rat at 1 mg/kg, iv. The format is ADME, organism-based. Particulars: in vivo.
Data set [33] in a line: Terminal half life in Sprague-Dawley rat at 5 mg/kg, po. The format is ADME, organism-based. Particulars: in vivo, read-out: beta t1/2 (converted).
A short description of data set [34]: Volume of distribution at steady state in Sprague-Dawley rat at 1 mg/kg, iv. The format is ADME, organism-based. Particulars: in vivo, read-out: Vdss.

The values below come from ChEMBL document CHEMBL4118122, “Identification and biological evaluation of thiazole-based inverse agonists of RORγt” (Bioorg Med Chem Lett, 2018).

A word on the Tmax: it is the time from dosing to the highest level. Broadly, the AUC(0-inf) is the area under the concentration-time curve extrapolated to infinity. What is called bioavailability is dose-corrected exposure relative to a reference, in per cent. Read a low bioavailability as poor availability. Usually clearance stands for the rate of elimination divided by the concentration. The term Cmax denotes the maximum level reached in the sampled fluid or tissue. As usually defined, the Kd is a measure of binding affinity in units of concentration.

Cytochrome P450 2D6, sequence (P10635 whole entry): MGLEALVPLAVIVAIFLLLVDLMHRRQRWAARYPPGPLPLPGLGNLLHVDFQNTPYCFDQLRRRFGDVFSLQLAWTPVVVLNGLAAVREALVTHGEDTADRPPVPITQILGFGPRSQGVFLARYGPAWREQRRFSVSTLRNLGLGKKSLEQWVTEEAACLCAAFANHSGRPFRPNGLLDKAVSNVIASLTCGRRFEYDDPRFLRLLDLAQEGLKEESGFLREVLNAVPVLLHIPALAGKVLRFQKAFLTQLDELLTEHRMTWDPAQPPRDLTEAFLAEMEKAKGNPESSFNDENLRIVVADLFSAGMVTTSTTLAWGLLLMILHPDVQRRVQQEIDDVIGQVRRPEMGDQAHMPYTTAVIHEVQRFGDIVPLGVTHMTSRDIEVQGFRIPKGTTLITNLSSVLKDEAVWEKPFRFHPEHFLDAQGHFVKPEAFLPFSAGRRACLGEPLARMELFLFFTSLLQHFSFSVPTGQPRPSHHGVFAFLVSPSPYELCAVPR
Cytochrome P450 2C19, sequence (P33261 whole entry): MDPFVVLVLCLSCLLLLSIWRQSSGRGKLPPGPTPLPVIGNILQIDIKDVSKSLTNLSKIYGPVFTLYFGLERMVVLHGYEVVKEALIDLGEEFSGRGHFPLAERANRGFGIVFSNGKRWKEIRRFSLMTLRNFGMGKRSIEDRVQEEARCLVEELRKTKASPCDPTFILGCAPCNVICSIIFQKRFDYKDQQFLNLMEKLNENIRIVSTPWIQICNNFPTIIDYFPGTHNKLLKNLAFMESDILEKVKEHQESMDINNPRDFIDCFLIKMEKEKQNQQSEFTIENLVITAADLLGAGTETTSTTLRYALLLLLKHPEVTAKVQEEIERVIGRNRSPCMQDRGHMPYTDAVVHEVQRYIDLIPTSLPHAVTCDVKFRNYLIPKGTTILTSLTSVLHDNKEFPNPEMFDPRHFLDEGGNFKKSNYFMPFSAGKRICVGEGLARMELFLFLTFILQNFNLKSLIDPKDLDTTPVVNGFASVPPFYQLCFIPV
Cytochrome P450 2C9, sequence (P11712 whole entry): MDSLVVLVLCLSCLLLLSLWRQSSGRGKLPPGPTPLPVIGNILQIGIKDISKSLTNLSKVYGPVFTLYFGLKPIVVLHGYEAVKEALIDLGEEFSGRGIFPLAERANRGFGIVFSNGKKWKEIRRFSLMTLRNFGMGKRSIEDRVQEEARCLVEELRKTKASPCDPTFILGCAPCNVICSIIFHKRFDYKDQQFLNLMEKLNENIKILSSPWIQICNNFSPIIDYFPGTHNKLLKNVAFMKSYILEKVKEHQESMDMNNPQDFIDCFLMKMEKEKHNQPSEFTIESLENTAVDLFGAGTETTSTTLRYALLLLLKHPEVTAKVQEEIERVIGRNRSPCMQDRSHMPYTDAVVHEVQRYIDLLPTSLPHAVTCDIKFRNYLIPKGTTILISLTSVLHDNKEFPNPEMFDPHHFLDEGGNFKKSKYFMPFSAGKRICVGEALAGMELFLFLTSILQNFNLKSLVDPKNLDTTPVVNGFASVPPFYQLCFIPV
Cytochrome P450 3A4, sequence (P08684 whole entry): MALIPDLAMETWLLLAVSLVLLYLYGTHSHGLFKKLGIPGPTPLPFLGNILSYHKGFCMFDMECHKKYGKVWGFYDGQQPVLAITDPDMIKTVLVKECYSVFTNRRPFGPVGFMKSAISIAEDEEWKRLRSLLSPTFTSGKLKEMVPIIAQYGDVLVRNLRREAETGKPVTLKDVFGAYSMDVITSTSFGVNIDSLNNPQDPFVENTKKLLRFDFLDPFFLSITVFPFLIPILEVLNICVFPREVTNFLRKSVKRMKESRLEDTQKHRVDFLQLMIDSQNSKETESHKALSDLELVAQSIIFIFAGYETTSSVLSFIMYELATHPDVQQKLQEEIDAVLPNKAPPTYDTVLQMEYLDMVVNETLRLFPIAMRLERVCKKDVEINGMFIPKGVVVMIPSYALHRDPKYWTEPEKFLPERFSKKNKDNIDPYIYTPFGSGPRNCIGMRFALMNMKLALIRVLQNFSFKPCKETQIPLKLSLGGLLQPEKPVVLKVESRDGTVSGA

Regarding `CC(C)(C)NS(=O)(=O)c1ccc(-c2sc(C(=O)N3CC4(C3)CS(=O)(=O)C4)nc2CC2CCCCC2)c(Cl)c1Cl`, the INH is > 10 µM in data set [1]; 1.6 µM in data set [2]; > 10 µM in [5]; > 10 µM in [8]; > 10 µM in [13]; > 10 µM in [21]. In data set [3], the Tmax was 1 h. In addition, the AUC(0-inf) in [4] was 360 ng·h/mL; in data set [15] it was 1580 ng·h/mL. Moreover, in data set [6], the solubility thermodynamic was < 4 µM. The molecule further gave a bioavailability in [7] of 87.7%. This molecule returned a clearance in [9] of 42.5 mL/min/kg. Moreover, the Emax at 16 h, 10 µM in data set [10] is 160%. In addition, the Emax at 16 h, 1 µM in [11] is 139%. The half-life was 0.917 h in data set [12], 0.3 h in [14], 1.5 h in [17] and 3 h in [20]. Besides, the solubility thermodynamic at 10000 µM in [16] was < 1 µM. In addition, the maximum concentration (Cmax) in [18] was determined as 269 ng/mL. In data set [19], this molecule registered a C0 of 518 ng/mL. The Vd in [22] was determined as 4.8 L/kg.
In data set [23], `C[C@H](NS(=O)(=O)c1ccc(-c2sc(C(=O)NCC(C)(C)O)nc2CC2CCC2)c(C(F)F)c1)C(F)(F)F` returned a clearance of 46.7 mL/min/kg. The INH is 5.4 µM in [1]; 2.7 µM in [2]; > 10 µM in data set [5]; 3 µM in data set [8]; > 10 µM in data set [13]; > 10 µM in data set [21]. Moreover, the AUC(0-inf) in data set [24] amounted to 198 ng·h/mL; in [25], 321 ng·h/mL. Also, in [26], the Kd was > 72 µM. Besides, the Tmax in data set [27] amounted to 1.7 h. This molecule displayed a C0 in data set [28] of 310 ng/mL. In addition, the Emax at 16 h, 1 µM in data set [11] was found to be 74%. Besides, the half-life in data set [12] is 0.95 h; in [14], > 3 h; in [32] it was 1.9 h; in data set [33] it was 3.2 h. Besides, the bioavailability in data set [29] worked out at 32.5%. The solubility thermodynamic at 10000 µM in data set [16] was < 4 µM. Further, the highest level in data set [30] (Cmax) was 57 ng/mL. In [31], the Emax at 16 h, 5 µM was found to be 144%. The Vd in data set [34] is 5.4 L/kg.
